Entries after “also recorded” stand apart in the source; their conditions may differ.
What was measured:
[1] = target: ACE-2 (Homo sapiens, UniProt Q9BYF1); conditions: cited from earlier work
[2] = tested on: isolated aortic vascular rings; experiment: Developed isometric tension of isolated aortic vascular rings; set-up: species or system rat
Description: FIG. 1. Synergistic effects of Angiotensin 1-9 (A1-9) on angiotensin II (AII)-induced vasoconstriction, representative experiment (experiment 9 from Table 3). Data are presented as the mean percentage of the maximal contractile response as defined by full KCl depolarization following treatment with angiotensin peptides for four separate rings used to determine average response at each concentration. Generated tension was plotted against peptide concentration and the resulting concentration-response curves were subjected to regression analysis to determine whether the effects of the combination of A1-9 and angiotensin II produced additivity or synergy.
The effects of graded doses of A1-9 (Fields et al., Peptide Research 4: 95-101 (1991)) or A1-10 (substrate control) alone or in combination (Tallarida, Drug Synergism and Dose-Effect Data Analysis, Chapman and Hall/CRC, New York (2000), Tallarida et al., Life Science 61: PL417-425 (1997)) with angiotensin II were examined on isolated aortic vascular rings developed tension in response to vasoactive substances. Aortas were removed from mature male Sprague-Dawley rats, cleared of connective tissue, and cut into 1 mm rings. Rings were mounted to an isometric force transducer and placed in Krebs-Henseleit solution bubbled with 95% O2/5% CO2 at 37° C. Rings were exposed to a 2 g preload, relaxed and then exposed to various concentrations of angiotensin peptides alone or in combination. Following angiotensin peptide dosing, rings were fully constricted with KCl to determine the maximum degree of vasoconstriction.

[3] = tested on: awake, free-ranging Sprague-Dawley rats; experiment: Arterial pressure in awake, free-ranging Sprague-Dawley rats, intravenous infusion; assay type: in vivo; conditions: awake rat
Protocol: FIG. 2. The effect of A1-9 on (A) mean arterial pressure ±SEM in the awake and freely-ranging rat (n=6 rats). Average mean arterial and pulse pressure as well as heart rate data were derived from the last 5 min of a 20 min continuous intravenous infusion period. * indicates a significant difference compared to vehicle-treated rats following analysis of variance and Dunnett's post-hoc test. A1-9 or angiotensin II (AII) continuous infusion doses are in μg/kg/min.
FIG. 3. The effect of A1-9 on angiotensin II-mediated pressor responses in normotensive awake male rats. Data are reported as average mean arterial pressure ±SEM (n=6 rats).
To investigate the effects of A1-9 on arterial pressure, A1-9 was administered to awake, free-ranging Sprague-Dawley rats via indwelling intravenous and arterial catheters. Intravenous infusion of A1-9 (1-3 μg/kg/min) in the awake rat produced a dose-dependent tonic increase in mean arterial pressure to a maximum of approximately 30 mmHg (FIG. 2). […] These responses seen with A1-9 were similar in magnitude to those induced by angiotensin II.
To examine any interactions induced by coadministration of A1-9 and angiotensin II, arterial pressure was monitored in the awake rat after they received either A1-9 (1 μg/kg/min) or saline coinfused with angiotensin II (1-100 ng/kg/min).

ACE-2, sequence (Q9BYF1 18-805): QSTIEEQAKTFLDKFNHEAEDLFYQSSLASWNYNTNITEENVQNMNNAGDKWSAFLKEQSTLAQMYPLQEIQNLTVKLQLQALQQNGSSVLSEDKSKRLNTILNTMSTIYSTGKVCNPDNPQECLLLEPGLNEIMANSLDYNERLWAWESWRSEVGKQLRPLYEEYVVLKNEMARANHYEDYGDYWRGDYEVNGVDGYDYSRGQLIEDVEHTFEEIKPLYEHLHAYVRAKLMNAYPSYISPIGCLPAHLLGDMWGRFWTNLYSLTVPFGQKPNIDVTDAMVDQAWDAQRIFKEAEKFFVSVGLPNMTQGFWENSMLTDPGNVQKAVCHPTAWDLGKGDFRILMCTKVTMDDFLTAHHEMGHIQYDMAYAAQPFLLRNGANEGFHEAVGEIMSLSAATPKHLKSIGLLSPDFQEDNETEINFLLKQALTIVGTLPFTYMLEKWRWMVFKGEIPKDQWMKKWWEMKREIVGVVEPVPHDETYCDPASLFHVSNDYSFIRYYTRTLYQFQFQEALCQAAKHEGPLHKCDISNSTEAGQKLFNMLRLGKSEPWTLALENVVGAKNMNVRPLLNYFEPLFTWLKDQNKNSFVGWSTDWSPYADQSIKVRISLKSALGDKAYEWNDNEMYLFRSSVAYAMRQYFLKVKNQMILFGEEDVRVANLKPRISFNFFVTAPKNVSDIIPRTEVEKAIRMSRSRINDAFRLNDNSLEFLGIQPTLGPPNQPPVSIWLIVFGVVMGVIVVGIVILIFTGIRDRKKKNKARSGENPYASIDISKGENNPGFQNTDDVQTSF

Molecule: C[C@H](CS)C(=O)N1CCC[C@H]1C(=O)O [captopril]
- blockade of ACE-2 formation of A1-9 from angiotensin I [1]: not blocked

Molecule: angiotensin 1-9 (DRVYIHPFH; Angiotensin 1-9; UniProt P01019 25-33, looked up) [A1-9, nonapeptide formed by removal of the C-terminal leucine from angiotensin I]
- potentiation of angiotensin II-mediated vasoconstriction ([2]; combined with angiotensin II, rat aortic rings): superadditive or synergistic interaction
- maximum tension developed / effect on vascular tone, peptide alone ([2]; rat aortic rings): no effect on vascular tone; also recorded: minimal
- factor by which relative potency of angiotensin II was increased beyond simple addition ([2]; shift of angiotensin II dose-effect curve by A1-9, rat aortic rings, FIG. 1): 11.6 (95% confidence limits of 3.02-44.7)
- effect on pressor response elicited by angiotensin II ([3]; coinfused with angiotensin II (1-100 ng/kg/min), A1-9 at 1 μg/kg/min): potentiated the pressor response elicted by angiotensin II in an additive fashion
- increase in mean arterial pressure, maximum ([3]; intravenous infusion 1-3 μg/kg/min): approximately 30 mmHg
